Test systems include HCT-15 colon; SW-620 colon; U251 CNS; A549 NSCLC; MCF7 breast; SF-268 CNS; SK-MEL-5 melanoma; M14 melanoma; SF-295 CNS; SNB-75 CNS.
Common to all, as to assay: NCI-60 cell line screen, 48 h

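Dose response: 5 concentrations. Exposure: 48 h. Format: 96-well plates. Endpoint: linear interpolation; highest concentration if not reached. Abbreviation: GI50, concentration required for 50% inhibition of growth. TGI marks complete inhibition of growth.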 Some results are limits rather than exact numbers.

As to `COc1ccccc1C1C(C#N)=C(N)Oc2n[nH]c(C)c21` (stereo not given), the GI50 with HCT-15 colon was greater than 100 µM; in the test on SW-620 colon, greater than 100 µM; with U251 CNS, 92.9 µM; in the test on A549 NSCLC, greater than 100 µM; in the test with MCF7 breast, greater than 100 µM; in the test with SF-268 CNS, greater than 100 µM. Moreover, the GI50 with SK-MEL-5 melanoma was 59 µM; in the test with M14 melanoma, greater than 100 µM; in the test on SF-295 CNS, greater than 100 µM; in the test with SNB-75 CNS, greater than 100 µM. Moreover, the TGI in the test on HCT-15 colon, in the test on SW-620 colon, in the test on U251 CNS, in the test on A549 NSCLC, in the test on MCF7 breast and in the test on SF-268 CNS was greater than 100 µM throughout. Also, the TGI in the test with SK-MEL-5 melanoma, in the test with M14 melanoma, in the test on SF-295 CNS and in the test on SNB-75 CNS was greater than 100 µM throughout.

On to `N#Cc1c(N)nc2c3c1NC(=O)C(C(N)=O)C3c1ccccc1O2` (stereo not given), for which the TGI in the test with HCT-15 colon, in the test on SW-620 colon, in the test on U251 CNS, in the test with A549 NSCLC, in the test with MCF7 breast and in the test on SF-268 CNS was greater than 100 µM each time. For the same molecule, the TGI in the test with SK-MEL-5 melanoma, in the test with M14 melanoma, with SF-295 CNS and in the test with SNB-75 CNS was greater than 100 µM in each case.

On to `O=[Se](O)O`, for which the TGI with HCT-15 colon is greater than 100 µM; in the test with SW-620 colon, greater than 100 µM; with U251 CNS, 2.82 µM; with A549 NSCLC, greater than 100 µM; with MCF7 breast, greater than 100 µM; in the test with SF-268 CNS, 4.94 µM. The TGI amounted to 8.68 µM in the test with SK-MEL-5 melanoma, 23.4 µM in the test with M14 melanoma, 1.7 µM in the test on SF-295 CNS and 7.55 µM with SNB-75 CNS.

For the molecule `OC(NN=C1CCCC1)(C(F)(F)Cl)C(F)(F)Cl`, the TGI in the test on HCT-15 colon, in the test on SW-620 colon, in the test with U251 CNS, in the test on A549 NSCLC, with MCF7 breast and in the test on SF-268 CNS was greater than 10 µM each time. The TGI in the test on SK-MEL-5 melanoma, in the test on M14 melanoma, with SF-295 CNS and with SNB-75 CNS was greater than 10 µM throughout.

With `Clc1cc(Cl)ncn1`, the TGI in the test with HCT-15 colon, in the test on SW-620 colon, in the test with U251 CNS, with A549 NSCLC, in the test on MCF7 breast and in the test on SF-268 CNS was greater than 100 µM each time. The TGI in the test on SK-MEL-5 melanoma, in the test on M14 melanoma, in the test on SF-295 CNS and in the test with SNB-75 CNS was greater than 100 µM throughout.

For `Cc1ccccc1NC(=O)CC(=O)NNC(Sc1ccccc1)c1cc(N=Nc2ccc(Br)cc2)ccc1O` (stereo not given), the TGI with HCT-15 colon, in the test with SW-620 colon, with U251 CNS, in the test on A549 NSCLC, with MCF7 breast and in the test with SF-268 CNS was greater than 10 µM each time. Moreover, the TGI in the test with SK-MEL-5 melanoma is 3.42 µM; with M14 melanoma it was 2.63 µM; in the test on SF-295 CNS, greater than 10 µM; in the test with SNB-75 CNS, greater than 10 µM.

In the case of `CCOC1=C(c2ccccc2)N2CCCCC2O1` (stereo not given), the TGI in the test with HCT-15 colon is 98.6 µM; in the test with SW-620 colon it was 36.4 µM; in the test with U251 CNS, greater than 100 µM; in the test on A549 NSCLC, greater than 100 µM; with MCF7 breast, 51.9 µM; with SF-268 CNS, 48.1 µM. The TGI amounted to 4.54 µM in the test with SK-MEL-5 melanoma, 12.1 µM with M14 melanoma, 15.5 µM in the test with SF-295 CNS and 28.7 µM in the test on SNB-75 CNS.

Take `C[C@H](C1CC2(C)OC2(C)C(=O)O1)[C@H]1CC[C@H]2[C@@H]3[C@@H]4O[C@@H]4[C@@]4(O)CC=CC(=O)[C@]4(C)[C@H]3CC[C@]12C` (stereo not given in full): the TGI with HCT-15 colon, with SW-620 colon, in the test with U251 CNS, in the test with A549 NSCLC, with MCF7 breast and in the test on SF-268 CNS was greater than 50 µM each time. In addition, the TGI with SK-MEL-5 melanoma was greater than 50 µM; with M14 melanoma, greater than 50 µM; with SF-295 CNS, greater than 50 µM; in the test with SNB-75 CNS, 19.8 µM.

For the molecule `Oc1ccc(Oc2cc3c(cc2Oc2ccc(O)cc2)-c2nc-3nc3[nH]c(nc4nc(nc5[nH]c(n2)c2cc(Oc6ccc(O)cc6)c(Oc6ccc(O)cc6)cc52)-c2cc(Oc5ccc(O)cc5)c(Oc5ccc(O)cc5)cc2-4)c2cc(Oc4ccc(O)cc4)c(Oc4ccc(O)cc4)cc32)cc1`, the TGI with HCT-15 colon, with SW-620 colon, in the test on U251 CNS, with A549 NSCLC, in the test with MCF7 breast and with SF-268 CNS was greater than 100 µM throughout. The TGI in the test on SK-MEL-5 melanoma was greater than 100 µM; in the test with M14 melanoma, 30.3 µM; in the test on SF-295 CNS it was 95.6 µM; in the test with SNB-75 CNS, greater than 100 µM.

Turning to `Cc1cc(-c2nc3cccc(O)c3s2)ccc1N`, the TGI with HCT-15 colon was greater than 100 µM; in the test on SW-620 colon it was greater than 100 µM; in the test with U251 CNS it was greater than 100 µM; in the test with A549 NSCLC, 41.4 µM; in the test on MCF7 breast it was 34.1 µM; with SF-268 CNS it was greater than 100 µM. Moreover, the TGI was 48.8 µM in the test on SK-MEL-5 melanoma, 37.7 µM with M14 melanoma, greater than 100 µM in the test with SF-295 CNS and greater than 100 µM with SNB-75 CNS.

On to `CC(C)=CCC[C@@H](C)C1=C(O)C(Nc2ccccc2I)=C(C)C(=O)C1=O`, for which the TGI with HCT-15 colon was greater than 75 µM; with SW-620 colon, greater than 75 µM; in the test with U251 CNS, greater than 75 µM; in the test on A549 NSCLC it was greater than 50.6 µM; in the test with MCF7 breast it was greater than 75 µM; in the test with SF-268 CNS, greater than 69.3 µM. Also, the TGI with SK-MEL-5 melanoma is 23 µM; in the test with M14 melanoma it was greater than 58.9 µM; in the test on SF-295 CNS, greater than 38.9 µM; in the test on SNB-75 CNS, 37.1 µM.

`COc1nc(C#CC2CCCCC2)nc(OC)n1`: the TGI is 5.97 µM in the test with HCT-15 colon; 15.6 µM in the test with SW-620 colon; 16.7 µM in the test on U251 CNS; 16.4 µM in the test on A549 NSCLC; 14.9 µM in the test on MCF7 breast; 20.4 µM in the test with SF-268 CNS. The TGI in the test with SK-MEL-5 melanoma worked out at 15.3 µM; in the test with M14 melanoma, 10.6 µM; with SF-295 CNS it was 18 µM; with SNB-75 CNS it was 27.6 µM.

Take `CCOC(=O)c1cc(Br)c(-c2onc(C)c2Br)[nH]1`: the TGI with HCT-15 colon was greater than 100 µM; with SW-620 colon, greater than 100 µM; in the test on U251 CNS it was 42.6 µM; with A549 NSCLC, greater than 100 µM; with MCF7 breast it was greater than 100 µM; in the test on SF-268 CNS it was greater than 100 µM. Also, the TGI in the test with SK-MEL-5 melanoma, in the test with M14 melanoma, in the test with SF-295 CNS and in the test with SNB-75 CNS was greater than 100 µM each time.

Consider `COc1cccc(C2c3cc4c(cc3OC(Nc3ccccc3)C2C)OCO4)c1O` (stereo not given), for which the TGI was 48.4 µM in the test on HCT-15 colon; 36.8 µM with SW-620 colon; 23.2 µM with U251 CNS; 23.6 µM in the test on A549 NSCLC; greater than 75 µM in the test on MCF7 breast; greater than 55.6 µM in the test on SF-268 CNS. For the same molecule, the TGI in the test with SK-MEL-5 melanoma is 17.7 µM; with M14 melanoma, 15.1 µM; in the test on SF-295 CNS, 18.7 µM; in the test with SNB-75 CNS, 26.8 µM.

These data come from PubChem BioAssay (NCI).
